Experimental data taken from paper PMC10975765 (Pharmaceuticals, 2024).
Read-outs that look alike come from different tables or passages of the source.

Experiments:
[1] = test system: Salmonella typhimurium TA98; experiment: Bacterial reverse mutation test (Ames test), TA98; details: TA98, +S9, positive control
Procedure: (§1) In brief, Salmonella typhimurium (TA98, TA100, TA102, TA1535, and TA1537) was cultured in a nutrient broth (12 mL) at 37 °C. […] Later, the mixture was added to 2 mL of top agar containing 0.5 mM L-histidine and 0.5 mM D-biotin. The mixture was agitated and poured onto the minimal agar plate and incubated at 37 °C for 48 h. All experiments were conducted in triplicate. The number of revertant colonies per plate was counted. The MR was calculated from the average of the revertant number divided by the average of negative control revertant number.

[2] = test system: Salmonella typhimurium TA102; details: TA102, +S9, positive control
Procedure: as §1

[3] = test system: Salmonella typhimurium TA1535
Procedure: as §1

[4] = test system: Salmonella typhimurium TA100
Procedure: as §1

[5] = test system: Salmonella typhimurium TA1537; experiment: Bacterial reverse mutation test (Ames test), TA1537
Procedure: as §1

[6] = target: butyrylcholinesterase (BChE) (Equus caballus, UniProt P81908); details: for interaction with donepezil to inhibit BChE: in combination with donepezil; for BChE inhibition (%): Figure 3
[7] = rat, in vivo; cited from earlier work
[8] = test system: transgenic Drosophila model for AD; details: cited from earlier work
[9] = target: acetylcholinesterase (AChE) (Electrophorus electricus, UniProt O42275); details: in combination with donepezil
Procedure: AChE and BChE inhibition were determined using well-established protocols without modifications. For BACE-1 inhibition, we complied with the manufacturer’s instructions (BACE-1 FRET assay kit, Sigma-Aldrich, St. Louis, MO, USA).
The half-maximal inhibitory concentration (IC50) against AChE, BChE and BACE-1 were calculated using GraphPad Prism (version 9.0, La Jolla, CA, USA) as follows:(2) Y=Bottom+Top−Bottom/1+10^((logIC50−X) × (HillSlope)), where Y is response, decreasing as X increases, X is log of dose or concentration, Top and Bottom are plateaus in same units as Y, and Hillslope is data slope factor or hill slope, unitless.

[10] = test system: isolated rat liver nuclei; details: cited from earlier work
[11] = test system: AChE; details: cited from earlier work; for IC50: read-out: AChE IC50
[12] = target: T1, β-secretase (BACE-1) (Homo sapiens, UniProt P56817); experiment: biochemical; assay type: biochemical; details: for BACE-1 inhibition (%): Figure 4
T1 construct: purchased Sigma-Aldrich

[13] = test system: S. typhimurium TA98 and TA100; details: TA98 and TA100, with/without S9 extract; cited from earlier work
[14] = test system: flies expressing human APP and BACE-1 in the developing eyes; experiment: Drosophila eye morphology by scanning electron microscopy; assay type: in vivo, Drosophila melanogaster; details: AD flies, 21 days
Procedure: All fly stocks were maintained in a standard medium at 25 °C, 60% humidity, and a 12 h/12 h light–dark cycle in constant climate chambers with ICH-compliant light source (BINDER GmbH, Tuttlingen, Germany). […] Flies were cultivated for 21 days at 28 °C, with food changes every three days.
The external compound eyes were then inspected using JSM-IT510 InTouchScope™ SEM Series (JEOL, Peabody, MA, USA) in a vacuum mode.

[15] = cited from earlier work
[16] = test system: V79 Chinese hamster lung cells; details: cited from earlier work
[17] = test system: PC12 cells; details: Aβ25–35-induced oxidative stress in PC12 cells; cited from earlier work
[18] = test system: human lymphocytes; details: cited from earlier work
[19] = test system: BACE-1; details: cited from earlier work
[20] = sample alone at IC20 (donepezil 0)
[21] = sample alone at IC30 (donepezil 0)

Chain of butyrylcholinesterase (BChE) (P81908 whole entry): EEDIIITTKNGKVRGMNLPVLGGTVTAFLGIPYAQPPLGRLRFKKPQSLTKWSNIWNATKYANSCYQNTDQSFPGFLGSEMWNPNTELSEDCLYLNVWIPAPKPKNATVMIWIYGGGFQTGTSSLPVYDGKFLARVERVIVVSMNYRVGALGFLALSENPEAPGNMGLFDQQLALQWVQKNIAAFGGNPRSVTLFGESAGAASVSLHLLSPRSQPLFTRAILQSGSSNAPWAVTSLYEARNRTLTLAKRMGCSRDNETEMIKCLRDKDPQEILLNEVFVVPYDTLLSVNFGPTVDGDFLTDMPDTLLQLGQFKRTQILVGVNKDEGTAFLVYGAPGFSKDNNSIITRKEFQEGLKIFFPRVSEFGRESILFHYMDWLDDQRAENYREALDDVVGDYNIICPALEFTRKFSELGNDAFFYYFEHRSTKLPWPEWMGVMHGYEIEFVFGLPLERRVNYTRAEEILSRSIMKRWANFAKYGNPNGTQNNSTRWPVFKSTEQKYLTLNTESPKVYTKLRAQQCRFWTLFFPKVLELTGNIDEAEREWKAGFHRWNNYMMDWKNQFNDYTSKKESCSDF
T1 sequence (P56817 46-501): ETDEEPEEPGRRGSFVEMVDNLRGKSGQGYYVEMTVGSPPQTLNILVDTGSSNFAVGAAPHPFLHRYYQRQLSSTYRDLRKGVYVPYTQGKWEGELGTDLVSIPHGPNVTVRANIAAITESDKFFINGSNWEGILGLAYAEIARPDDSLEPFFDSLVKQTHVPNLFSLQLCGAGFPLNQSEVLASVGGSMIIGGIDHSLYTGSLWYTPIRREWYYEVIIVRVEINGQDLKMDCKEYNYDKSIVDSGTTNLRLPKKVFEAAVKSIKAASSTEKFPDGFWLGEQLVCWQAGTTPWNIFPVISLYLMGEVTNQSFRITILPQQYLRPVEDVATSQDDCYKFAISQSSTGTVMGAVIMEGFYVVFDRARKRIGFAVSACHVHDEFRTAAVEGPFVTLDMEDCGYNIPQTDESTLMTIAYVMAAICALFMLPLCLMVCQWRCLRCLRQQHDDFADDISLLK
Chain of acetylcholinesterase (AChE) (O42275 24-633): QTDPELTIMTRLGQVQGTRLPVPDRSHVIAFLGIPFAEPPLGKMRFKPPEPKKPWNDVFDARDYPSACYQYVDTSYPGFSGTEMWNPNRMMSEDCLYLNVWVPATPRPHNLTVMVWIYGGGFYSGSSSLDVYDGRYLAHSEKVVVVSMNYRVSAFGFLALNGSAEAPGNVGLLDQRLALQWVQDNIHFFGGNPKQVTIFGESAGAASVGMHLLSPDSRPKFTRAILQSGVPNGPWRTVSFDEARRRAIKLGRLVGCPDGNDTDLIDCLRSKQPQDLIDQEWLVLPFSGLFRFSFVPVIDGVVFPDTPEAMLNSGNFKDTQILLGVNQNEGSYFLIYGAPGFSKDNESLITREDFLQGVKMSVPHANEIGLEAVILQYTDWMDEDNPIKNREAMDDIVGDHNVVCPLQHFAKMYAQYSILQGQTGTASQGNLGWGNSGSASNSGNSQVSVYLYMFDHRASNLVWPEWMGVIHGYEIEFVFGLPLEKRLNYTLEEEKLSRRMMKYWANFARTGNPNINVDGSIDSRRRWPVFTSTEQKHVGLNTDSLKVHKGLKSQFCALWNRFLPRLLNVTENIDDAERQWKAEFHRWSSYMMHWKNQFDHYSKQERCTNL

Nc1ccc2cc3ccccc3cc2c1 [2-AA, 2-aminoanthracen]
MR (mutagenicity ratio) [1]: 14.15 | MR class [1]: (+) ((+): indicates the mutagenicity ratio (MR) is ≥2) | Revertant Colonies [1]: 1396.00 ± 48.94 | MR class [2]: (+) ((+): indicates the mutagenicity ratio (MR) is ≥2) | Revertant Colonies [2]: 960.67 ± 29.07 | MR (mutagenicity ratio) ([3]; TA1535, +S9, positive control): 33.32 | MR class ([3]; TA1535, +S9, positive control): (+) ((+): indicates the mutagenicity ratio (MR) is ≥2) | Revertant Colonies ([3]; TA1535, +S9, positive control): 349.83 ± 18.89 | MR (mutagenicity ratio) ([4]; TA100, +S9, positive control): 10.04 | MR class ([4]; TA100, +S9, positive control): (+) ((+): indicates the mutagenicity ratio (MR) is ≥2) | Revertant Colonies ([4]; TA100, +S9, positive control): 876.67 ± 34.21 | MR (mutagenicity ratio) ([5]; TA1537, +S9, positive control): 20.71 | MR class ([5]; TA1537, +S9, positive control): (+) ((+): indicates the mutagenicity ratio (MR) is ≥2) | Revertant Colonies ([5]; TA1537, +S9, positive control): 203.67 ± 5.56

Nc1c2ccccc2nc2ccccc12 [9-AA, 9-aminoacridine]
MR (mutagenicity ratio) ([5]; TA1537, −S9, positive control): 86.67 | MR class ([5]; TA1537, −S9, positive control): (+) ((+): indicates the mutagenicity ratio (MR) is ≥2) | Revertant Colonies ([5]; TA1537, −S9, positive control): 780.00 ± 24.11

O=c1c(O)c(-c2ccc(O)cc2)oc2cc(O)cc(O)c12 [Kaempferol, kaempferol]
interaction with donepezil to inhibit BChE [6]: slight synergism | BChE inhibition (%) [6, 20]: 22% | BChE inhibition (%) [6, 21]: 29% | tumor induction [7]: did not significantly induce tumors | memory loss, climbing ability and AChE activity [8]: delayed memory loss by maintaining climbing ability and reducing AChE activity | interaction with donepezil to inhibit AChE [9]: slightly antagonized | nuclear DNA damages and lipid peroxidation [10]: induced nuclear DNA damages and lipid peroxidation | mode of AChE inhibition [11]: reversible mixed mode | IC50 [11]: 12.4 µM | interaction with donepezil on BACE-1 ([12]; in combination with donepezil): slightly antagonistically | IC50 ([12]; read-out: Half-Maximal Inhibitory Concentration (IC50) BACE-1 (converted)): 299 µM | BACE-1 inhibition (%) [12, 20]: 16% | BACE-1 inhibition (%) [12, 21]: 29% | genotoxicity in S. typhimurium [13]: genotoxicity exclusively when the S9 extract was present

COc1cc2c(cc1OC)C(=O)C(CC1CCN(Cc3ccccc3)CC1)C2 (stereo not shown) [Donepezil, donepezil]
eye morphology (retina degeneration, ommatidia and bristles) ([14]; donepezil 2.5 µM): did not reverse retina degeneration | eye morphology (retina degeneration, ommatidia and bristles) ([14]; donepezil 5 µM): did not reverse retina degeneration | eye morphology (retina degeneration, ommatidia and bristles) ([14]; donepezil 10 µM): eye phenotypes roughly similar to the negative control

O=C(/C=C/c1ccc(O)c(O)c1)O[C@H](Cc1ccc(O)c(O)c1)C(=O)O [rosmarinic acid]
crossing of the BBB [15]: reported to cross the BBB

O=c1c(O)c(-c2ccc(O)c(O)c2)oc2cc(O)cc(O)c12 [Quercetin, quercetin]
interaction with donepezil to inhibit BChE [6]: slight synergism | BChE inhibition (%) [6, 20]: 20% | BChE inhibition (%) [6, 21]: 32% | tumor induction [7]: did not significantly induce tumors | micronuclei induction [16]: induced micronuclei | neuroprotective effects [17]: demonstrated neuroprotective effects | interaction with donepezil to inhibit AChE [9]: slightly antagonized | mode of AChE inhibition [11]: […] | IC50 [11]: […] | BACE-1 inhibition (%) [12, 20]: 22% | BACE-1 inhibition (%) [12, 21]: 33% | micronuclei induction [18]: induced micronuclei | IC50 [19]: […] | genotoxicity in S. typhimurium [13]: genotoxicity in the bacterial strains both with and without the S9 extract

[N-]=[N+]=[N-].[Na+] [NaN3, sodium azide]
MR (mutagenicity ratio) ([3]; TA1535, −S9, positive control): 18.90 | MR class ([3]; TA1535, −S9, positive control): (+) ((+): indicates the mutagenicity ratio (MR) is ≥2) | Revertant Colonies ([3]; TA1535, −S9, positive control): 214.17 ± 9.51 | MR (mutagenicity ratio) ([4]; TA100, −S9, positive control): 17.14 | MR class ([4]; TA100, −S9, positive control): (+) ((+): indicates the mutagenicity ratio (MR) is ≥2) | Revertant Colonies ([4]; TA100, −S9, positive control): 1145.33 ± 52.03
